Laboratory results taken from US10465171B2, “7β-hydroxysteroid dehydrogenases and their use” (PharmaZell GmbH, priority 2009, dated 2019).
“Also recorded” adds a separate entry of the source.

Experiments:
[1] = target: T1, 7β-HSDH from Collinsella aerofaciens DSM 3979 (Collinsella aerofaciens, UniProt A4ECA9); test: Preparative biotransformation of 7-keto-LCA by 7β-HSDH with ADH cofactor regeneration, HPLC analysis; assay type: biochemical; settings: 0.4 g 7-keto-LCA, 100 U 7β-HSDH, 24° C., 24 hours, pH 8
T1 sequence (A4ECA9 whole entry): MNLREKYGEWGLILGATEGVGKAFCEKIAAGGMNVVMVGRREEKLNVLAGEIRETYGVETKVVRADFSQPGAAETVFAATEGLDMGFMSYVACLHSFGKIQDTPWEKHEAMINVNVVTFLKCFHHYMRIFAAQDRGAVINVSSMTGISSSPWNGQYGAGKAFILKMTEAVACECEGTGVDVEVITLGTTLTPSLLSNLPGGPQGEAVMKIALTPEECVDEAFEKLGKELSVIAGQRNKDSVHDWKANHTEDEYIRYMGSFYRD
Experimental: The conversion of 7-keto-LCA by 7β-HSDH was performed in order to verify the biochemical function of 7β-HSDH. 0.4 g of 7-keto-LCA were suspended in 10 ml of potassium phosphate buffer (50 mM, pH 8) and the pH was adjusted to pH 8 by addition of 2M sodium hydroxide. 0.2 ml of isopropanol, 100 U of 7β-HSDH and 80 U of alcohol dehydrogenase (ADH-TE) from Thermoanaerobacter ethanolicus (kindly donated by Dr. K. Momoi, ITB University, Stuttgart) and 1 μmol NADP^+ were added. The same buffer was added, so as to obtain a total reaction volume of 20 ml. The reaction mixture was incubated at 24° C. and stirred for 24 hours. During this, NADPH was regenerated by means of ADH via the oxidation of 2-propanol. […]
An HPLC analysis was performed on a column of the Purospher® STAR RP-18 type (Hitbar® RT 125-4 Pre-Packed Column, Purospher® STAR RP-18 endcapped, Merck, Germany), equipped with a precolumn of the LiChroCART® STAR RP18 type (endcapped, Merck, Germany) on an LC20AD HPLC system (Shimadzu, Japan) at a flow rate of 1 ml/min. […] 20 μl sample (1 mg/ml) were analyzed. […]
To confirm the function of the enzyme, a biotransformation of 7-keto-LCA on the […] was performed, wherein the isolated enzyme was used in combination with ADH for the regeneration of NADPH with the use of 2-propanol, as already described. […] CDCA (retention time 19.4 min) was not detected in the reaction mixture.

[2] = target: 7β-HSDH from Collinsella aerofaciens ATCC 25986 (DSM 3979) (Collinsella aerofaciens, UniProt A4ECA9); test: Photometric identification of 7β-HSDH activity (cell extract of E. coli expressing the candidate); assay type: biochemical; settings: 0.1 mM test substance, potassium phosphate buffer 50 mM pH 8, in the presence of NADP+ or NADPH
7β-HSDH from Collinsella aerofaciens ATCC 25986 (DSM 3979), sequence (A4ECA9 whole entry): as above
Experimental: The expression was performed in 50 ml of LB medium. For the preparation of preculture, one colony on an LB agar plate was picked and incubated overnight at 37° C. and 160 Rpm in 5 ml of LB medium (contains relevant antibiotics) a. The 50 ml of LB medium (contains relevant antibiotics) was inoculated with 500 pi of preculture. The culture was incubated at 37° C. and 160 Rpm. Up to OD600 ca. 0.8, expression was induced by addition of 0.5 mM IPTG. After 6 hrs or one night, the cells were centrifuged down. The pellets were resuspended in 6 ml of potassium phosphate buffer (50 mM, pH 8, contains 0.1 mM PMSF) and disintegrated with ultrasound. The cell fragments were removed by centrifugation.
For the identification of 7β-HSDH activity the activity was tested by photometric methods. For this, enzyme and 0.1 mM of test substance (UDCA) in potassium phosphate buffer (50 mM, pH 8) were mixed in a 1 ml cuvette. After addition of NADPH(NADH) or NADP^+ (NAD^+), the degradation or formation of NAD(P)H was measured.

[3] = target: T1, 7β-HSDH from Collinsella aerofaciens DSM 3979; assay type: biochemical
[4] = system: 7β-HSDH enzyme from C. aerofaciens ATCC25986 described by Hirano et al; set-up: unit not given here; settings: enzyme of Hirano et al; cited from earlier work

C[C@H](CCC(=O)O)[C@H]1CC[C@H]2[C@@H]3C(=O)C[C@@H]4C[C@H](O)CC[C@]4(C)[C@H]3CC[C@]12C [7-keto-LCA, 7-keto-lithocholic acid]
conversion to UDCA [1]: 90%
activity [2]: 35 U/ml

C[C@H](CCC(=O)O)[C@H]1CC[C@H]2[C@@H]3[C@H](O)C[C@@H]4C[C@H](O)CC[C@]4(C)[C@H]3C[C@H](O)[C@]12C [CA, Cholic acid]
activity [2]: no activity; also recorded: not detectable

C[C@H](CCC(=O)O)[C@H]1CC[C@H]2[C@@H]3C(=O)C[C@@H]4CC(=O)CC[C@]4(C)[C@H]3CC(=O)[C@]12C [DHCA, Dehydrocholic acid]
activity [2]: 119 U/ml

NC(=O)C1=CN([C@@H]2O[C@H](COP(=O)(O)OP(=O)(O)OC[C@H]3O[C@@H](n4cnc5c(N)ncnc54)[C@H](O)[C@@H]3O)[C@@H](O)[C@H]2O)C=CC1 [NADH]
activity as coenzyme [3]: very low activity
kcat [3]: traces

NC(=O)c1ccc[n+]([C@@H]2O[C@H](COP(=O)([O-])OP(=O)(O)OC[C@H]3O[C@@H](n4cnc5c(N)ncnc54)[C@H](OP(=O)(O)O)[C@@H]3O)[C@@H](O)[C@H]2O)c1 [NADP^+]
Vmax [3]: 30.58 U/mg protein
Vmax [4]: 0.2

NC(=O)c1ccc[n+]([C@@H]2O[C@H](COP(=O)([O-])OP(=O)(O)OC[C@H]3O[C@@H](n4cnc5c(N)ncnc54)[C@H](O)[C@@H]3O)[C@@H](O)[C@H]2O)c1 [NAD^+]
activity as coenzyme [3]: very low activity
kcat [3]: traces

C[C@H](CCC(=O)O)[C@H]1CC[C@H]2[C@@H]3[C@@H](O)C[C@@H]4C[C@H](O)CC[C@]4(C)[C@H]3CC[C@]12C [UDCA, Ursodeoxycholic acid]
activity [2]: 60 U/ml

NADPH
Vmax [3]: 33.44 U/mg protein
kcat [3]: 1033.44 1 μmol/(μmol × min)
